# Measurements published in patent US9757383B2, “Cyclohexylamine derivatives having β2 adrenergic agonist and M3 muscarinic antagonist activities” (ALMIRALL, S.A., priority 2011, dated 2017).
# Tests used:
# [1] = target: human adrenergic beta2 receptor (Homo sapiens (Human), UniProt P07550); experiment: Human adrenergic β2 receptor binding assay (3H-CGP12177, Sf9 cell membranes); settings: 0.6 nM 3H-CGP12177, membranes from Sf9 cells
# Description: Test 1: Human Adrenergic β1 and β2 Receptor Binding Assays
# The study of binding to human adrenergic beta1 and beta2 receptors was performed using commercial membranes prepared from Sf9 cells where they are overexpressed (Perkin Elmer). The membrane suspensions (16 μg/well for beta1 and 5 μg/well for beta2) in assay buffer (75 mM Tris/HCl with 12.5 mM MgCl2 and 2 mM EDTA pH=7.4) were incubated with 0.14 or 0.6 nM of 3H-CGP12177 (Amersham) for beta 1 and beta 2 receptors respectively in a final volume of 250 μl, in GFC Multiscreen 96 well plates (Millipore) previously treated with assay buffer containing 0.3% PEI (Sigma). Non specific binding was measured in the presence of 1 μM propanolol. Incubation was maintained for 60 minutes at room temperature and with gentle shaking. The binding reactions were terminated by filtration and washing with 2.5 volumes of Tris/HCl 50 mM pH=7.4. The affinity of each test compound to the receptor was determined by using ten different concentrations ran in duplicate. IC50s were calculated using Activity Base software from IDBS and the four parameters-log equation.
# [2] = target: human muscarinic M3 receptor (Homo sapiens (Human), UniProt P20309); experiment: Human muscarinic M3 receptor binding assay ([3H]-NMS, CHO-K1 cell membranes); settings: 1 nM [3H]-NMS, membranes from CHO-K1 cells
# human muscarinic M3 receptor, sequence (P20309 whole entry): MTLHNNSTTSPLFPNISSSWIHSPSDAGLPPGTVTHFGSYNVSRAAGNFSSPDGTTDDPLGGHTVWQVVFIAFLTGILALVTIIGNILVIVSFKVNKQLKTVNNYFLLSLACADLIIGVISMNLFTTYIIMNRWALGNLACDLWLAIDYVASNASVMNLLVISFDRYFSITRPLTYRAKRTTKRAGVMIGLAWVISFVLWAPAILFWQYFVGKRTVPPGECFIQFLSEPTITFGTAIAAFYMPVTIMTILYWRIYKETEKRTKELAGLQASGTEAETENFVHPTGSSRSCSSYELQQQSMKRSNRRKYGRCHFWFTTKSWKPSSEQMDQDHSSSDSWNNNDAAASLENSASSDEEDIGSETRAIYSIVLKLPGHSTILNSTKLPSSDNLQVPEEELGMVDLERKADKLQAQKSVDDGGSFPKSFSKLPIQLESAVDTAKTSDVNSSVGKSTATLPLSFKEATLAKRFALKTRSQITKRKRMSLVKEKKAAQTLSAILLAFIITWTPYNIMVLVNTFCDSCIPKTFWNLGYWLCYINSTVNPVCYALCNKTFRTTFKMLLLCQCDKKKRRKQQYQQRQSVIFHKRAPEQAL
# Description: Test 2: Human Muscarinic M1, M2, M3, M4 and M5 Receptors Binding Assays
# The study of binding to human muscarinic M1, M2, M3, M4 and M5 receptors was performed using commercial membranes (Perkin Elmer) prepared from CHO-K1 cells. Radioligand binding experiments were conducted in 96 polypropylene well plates in a total volume of 200 μl. All reagents were dissolved in assay binding buffer (PBS with calcium and magnesium, SIGMA), except compounds that were dissolved in DMSO 100%. Non-specific binding (NSB) was measured in the presence of 1 μM atropine. [3H]-NMS was used as the radioligand at a concentration of 1 nM for M2, M3 and M5 and 0.3 nM for M1 and M4. […]
# After an incubation period of two hours with gentle shaking, 150 μl of the reaction mix were transferred to 96 GF/C filter plates (Millipore), previously treated with wash buffer (Tris 50 mM; NaCl 100 mM; pH: 7.4), containing 0.05% PEI (Sigma) during one hour. […] After drying 30 min, 30 μl of OPTIPHASE Supermix were added to each well and radioactivity quantified using a Microbeta microplate scintillation counter.
# The affinity of each test compound to the receptors was determined by using ten different concentrations ran in duplicate. IC50s were calculated using Activity Base software from IDBS and the four parameters-log equation.
Compound,IC50 [1] [nM],IC50 [2] [nM]
"trans-4-{[2-({2-[4-(2-{[(2R)-2-hydroxy-2-(8-hydroxy-2-oxo-1,2-dihydroquinolin-5-yl)ethyl]amino}propyl)phenoxy]acetyl}amino)ethyl]amino}cyclohexyl hydroxy(di-2-thienyl)acetate dihydrofluoride [Example 20]",3.1,3.6
"CN(CCCn1c(=O)[nH]c2cc(CNC[C@H](O)c3ccc(O)c4[nH]c(=O)ccc34)ccc21)[C@H]1CC[C@H](OC(=O)C(O)(c2cccs2)c2cccs2)CC1 (relative stereo) [Example 2, trans-4-[{3-[5-({[(2R)-2-hydroxy-2-(8-hydroxy-2-oxo-1,2-dihydroquinolin-5-yl)ethyl]amino}methyl)-2-oxo-2,3-dihydro-H-benzimidazol-1-yl]propyl}(methyl)amino]cyclohexyl hydroxy(di-2-thienyl)acetate dihydrofluoride]",120,0.4
